Results published in US5482967A, “Condensed heterocyclic compounds, their production and use” (Takeda Chemical Industries, Ltd., priority 1992, dated 1996).

Biological target: substance P receptor (Homo sapiens, UniProt P25103)
Test: Radioligand receptor binding inhibitory assay using receptor from human lymphoblast cells (IM-9), 125I-BHSP
Conditions: IM-9 receptor, 25° C., 30 minutes
Description: The method of A. Margaret et al. [Molecular Pharmacology 42, 458 (1992)] was modified and used. The receptor was prepared from human lymphoblast cells (IM-9). IM-9 cells were grown in 175 cm^2 tissue culture flasks (100 ml×10) at a density approximately 2×10^5 /ml of RPMI 1640 with L-glutamine, 10% (V/V) heat inactivated fetal calf serum, penicillin (100 u/ml), and streptomycin (100 μg/ml) at 37° C. in 5% CO2 /95% air for 3 days. IM-9 cells were obtained by centrifugation at 500×g for 5 minutes at 5° C. The pellet obtained was washed once with phosphate buffer (Flow Laboratories, CAT No. 28-103-05), homogenized using Polytron homogenizer (Kinematika, Germany) in 30 ml of 50 mM Tris-HCl buffer containing 120 mM NaCl, 5 mM KCl, 2 μg/ml phenylmethyl sulfonyl fluoride, and 1 mM ethylenediamine tetra-acetic acid and then centrifuged at 40,000×g for 20 minutes. The residue was washed twice with 30 ml of buffer described above, and preserved frozen (-80° C.).
The above specimen was suspended in a reaction buffer (50 mM Tris-HCl buffer (pH 7.4), 0.02% bovine serum albumin, 1 mM phenylmethylsulfonyl fluoride, 2 μg/ml chymostatin, 40 μg/ml bacitracin, 3 mM manganese chloride) at a protein concentration of 1.5 mg/ml and a 100 μl portion of the suspension was used in the reaction. After addition of the sample and 125I-BHSP (0.46 KBq), the reaction was conducted in 0.2 ml of reaction buffer at 25° C. for 30 minutes. The amount of nonspecific binding was determined by adding substance P at a final concentration of 2×10^-6 M. After the reaction, using a cell harvester (290PHD, Cambridge Technology, Inc., England), rapid filtration was carried out through a glass filter (GF/B, Whatman, U.S.A.) to stop the reaction. After washing three times with 250 μl of 50 mM Tris-HCl buffer (pH 7.4) containing 0.02% bovine serum albumin, the radioactivity remaining on the filter was measured with a gamma counter. Before use, the filter was immersed in 0.1% polyethyleneimine for 24 hours and air-dried.

substance P receptor, sequence (P25103 whole entry): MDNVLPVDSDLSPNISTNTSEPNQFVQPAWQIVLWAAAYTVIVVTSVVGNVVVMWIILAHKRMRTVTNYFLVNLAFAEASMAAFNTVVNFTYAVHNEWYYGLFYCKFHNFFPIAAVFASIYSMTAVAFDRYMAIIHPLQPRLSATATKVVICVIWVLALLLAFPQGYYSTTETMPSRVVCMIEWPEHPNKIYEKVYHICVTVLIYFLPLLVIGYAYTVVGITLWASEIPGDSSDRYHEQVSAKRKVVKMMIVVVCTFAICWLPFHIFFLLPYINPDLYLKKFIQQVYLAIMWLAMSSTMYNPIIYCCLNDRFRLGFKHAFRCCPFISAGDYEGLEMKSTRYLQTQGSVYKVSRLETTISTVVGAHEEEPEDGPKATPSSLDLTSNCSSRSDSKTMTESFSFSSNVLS

Row | SMILES | IC50 [µM]
1 | CN(Cc1cc(C(F)(F)F)cc(C(F)(F)F)c1)C(=O)[C@H]1[C@@H](c2ccccc2)c2ccccc2C(=O)N1C (relative stereo) [Example 279, 3,4-cis-N-[3,5-Bis(trifluoromethyl)benzyl]-1,2,3,4-tetrahydro-N-2-dimethyl-1-oxo-4-phenyl-3-isoquinolinecarboxamide] | 0.034
2 | CN(Cc1cc(C(F)(F)F)cc(C(F)(F)F)c1)C(=O)[C@H]1[C@H](c2ccc(F)cc2)c2ccccc2C(=O)N1C (relative stereo) [Example 280, 3,4-trans-N-[3,5-Bis(trifluoromethyl)benzyl]-4-(4-fluorophenyl)-1,2,3,4-tetrahydro-N,2-dimethyl-1-oxo-3-isoquinolinecarboxamide] | 0.058
3 | CN(Cc1cc(C(F)(F)F)cc(C(F)(F)F)c1)C(=O)[C@@H]1OC(=O)c2ccccc2[C@@H]1c1ccccc1 (relative stereo) [Example 281, 3,4-cis-N-[3,5-Bis(trifluoromethyl)benzyl]-3,4-dihydro-N-methyl-1-oxo-4-phenyl-1H-2-benzopyran-3-carboxamide] | 0.036
4 | Cc1ccccc1-c1c(C(=O)NCc2cc(C(F)(F)F)cc(C(F)(F)F)c2)n(C)c(=O)c2ccccc12 [Example 101, N-[3,5-Bis(trifluoromethyl)benzyl]-1,2-dihydro-2-methyl-4-(2-methylphenyl)-1-oxo-3-isoquinolinecarboxamide] | 0.0025
5 | Cc1ccccc1-c1c(C(=O)N(C)Cc2ccccc2)n(C)c(=O)c2ccccc12 [Example 103, N-Benzyl-1,2-dihydro-N,2-dimethyl-4-(2-methylphenyl)-1-oxo-3-isoquinolinecarboxamide] | 0.034
6 | COc1ccccc1CN(C)C(=O)c1c(-c2ccccc2C)c2ccccc2c(=O)n1C [Example 104, 1,2-Dihydro-N-(2-methoxybenzyl)-N,2-dimethyl-4-(2-methylphenyl)-1-oxo-3-isoquinolinecarboxamide] | 0.016
7 | Cc1ccccc1-c1c(C(=O)N(C)Cc2ccccc2Cl)n(C)c(=O)c2ccccc12 [Example 105, N-(2-Chlorobenzyl)-1,2-dihydro-N,2-dimethyl-4-(2-methylphenyl)-1-oxo-3-isoquinolinecarboxsmide] | 0.019
8 | Cc1cc(C)cc(CN(C)C(=O)c2c(-c3ccccc3C)c3ccccc3c(=O)n2C)c1 [Example 106, 1,2-Dihydro-N-(3,5-dimethylbenzyl)-N,2-dimethyl-4-(2-methylphenyl)-1-oxo-3-isoquinolinecarboxamide] | 0.03
9 | CCN(Cc1ccccc1OC)C(=O)c1c(-c2ccccc2C)c2ccccc2c(=O)n1C [Example 107, N-Ethyl-1,2-dihydro-N-(2-methoxybenzyl)-2-methyl-4-(2-methylphenyl)-1-oxo-3-isoquinolinecarboxamide] | 0.034
10 | COc1ccccc1CN(C)C(=O)c1c(-c2ccccc2)c2ccccc2c(=O)n1C [Example 108, 1,2-Dihydro-N-(2-methoxybenzyl)-N,2-dimethyl-1-oxo-4-phenyl-3-isoquinolinecarboxamide] | 0.03
11 | Cc1cc2c(-c3ccccc3)c(C(=O)N(C)Cc3cc(C(F)(F)F)cc(C(F)(F)F)c3)n(C)c(=O)c2cc1C [Example 112, N-[3,5-Bis(trifluoromethyl)benzyl]-1,2-dihydro-N,2,6,7-tetramethyl-1-oxo-4-phenyl-3-isoquinolinecarboxamide] | 0.0084
12 | Cc1cccc(C)c1-c1c(C(=O)NCc2cc(C(F)(F)F)cc(C(F)(F)F)c2)n(C)c(=O)c2ccccc12 [Example 122, N-[3,5-Bis(trifluoromethyl)benzyl]-1,2-dihydro-2-methyl-4-(2,6-dimethylphenyl)-1-oxo-3-isoquinolinecarboxamide] | 0.082
13 | Cc1cccc(C)c1-c1c(C(=O)N(C)Cc2cc(C(F)(F)F)cc(C(F)(F)F)c2)n(C)c(=O)c2ccccc12 [Example 123, N-[3,5-Bis(trifluoromethyl)benzyl]-1,2-dihydro-4-(2,6-dimethylphenyl)-N,2-dimethyl-1-oxo-3-isoquinolinecarboxamide] | 0.046
14 | CN(Cc1cc(C(F)(F)F)cc(C(F)(F)F)c1)C(=O)c1c(-c2ccccc2)c2ccccc2c(=O)n1C [Example 157, N-[3,5-Bis(trifluoromethyl)benzyl]-1,2-dihydro-N,2-dimethyl-1-oxo-4-phenyl-3-isoquinolinecarboxamide] | 0.0012
15 | COc1ccccc1-c1c(C(=O)NCc2cc(C(F)(F)F)cc(C(F)(F)F)c2)n(C)c(=O)c2ccccc12 [Example 158, N-[3,5-Bis(trifluoromethyl)benzyl]-1,2-dihydro-4-(2-methoxyphenyl)-2-methyl-1-oxo-3-isoquinolinecarboxamide] | 0.078
16 | COc1ccccc1-c1c(C(=O)N(C)Cc2cc(C(F)(F)F)cc(C(F)(F)F)c2)n(C)c(=O)c2ccccc12 [Example 159, N-[3,5-Bis(trifluoromethyl)benzyl]-1,2-dihydro-4-(2-methoxyphenyl)-N,2-dimethyl-1-oxo-3-isoquinolinecarboxamide] | 0.012
17 | Cn1c(C(=O)NCc2cc(C(F)(F)F)cc(C(F)(F)F)c2)c(-c2ccc(F)cc2)c2ccccc2c1=O [Example 165, N-[3,5-Bis(trifluoromethyl)benzyl]-4-(4-fluorophenyl)-1,2-dihydro-2-methyl-1-oxo-3-isoquinolinecarboxamide] | 0.024

Other lines, results leading:

Row | IC50 [µM] | SMILES
18 | 0.05 | COc1ccc(CNC(=O)c2c(-c3ccccc3)c3cc(C)c(C)cc3c(=O)n2C)cc1 [Example 109, 1,2-Dihydro-N-(4-methoxybenzyl)-2,6,7-trimethyl-1-oxo-4-phenyl-3-isoquinolinecarboxamide]
19 | 0.09 | COc1ccccc1CNC(=O)c1c(-c2ccccc2)c2cc(C)c(C)cc2c(=O)n1C [Example 110, 1,2-Dihydro-N-(2-methoxybenzyl)-2,6,7-trimethyl-1-oxo-4-phenyl-3-isoquinolinecarboxamide]
20 | 0.098 | COc1ccccc1CN(C)C(=O)c1c(-c2ccccc2)c2cc(C)c(C)cc2c(=O)n1C [Example 111, 1,2-Dihydro-N-(2-methoxybenzyl)-N,2,6,7-tetramethyl-1-oxo-4-phenyl-3-isoquinolinecarboxamide]
21 | 0.0088 | Cc1ccc(CNC(=O)c2c(-c3ccccc3)c3cc(C)c(C)cc3c(=O)n2C)cc1 [Example 127, 1,2-Dihydro-2,6,7-trimethyl-N-(4-methylbenzyl)-1-oxo-4-phenyl-3-isoquinolinecarboxamide]
22 | 0.088 | COc1cccc(CNC(=O)c2c(-c3ccccc3)c3cc(C)c(C)cc3c(=O)n2C)c1 [Example 128, 1,2-Dihydro-N-(3-methoxybenzyl)-2,6,7-trimethyl-1-oxo-4-phenyl-3-isoquinolinecarboxamide]
23 | 0.038 | Cc1cc2c(-c3ccccc3)c(C(=O)NCc3cccc(Cl)c3)n(C)c(=O)c2cc1C [Example 130, N-(3-Chlorobenzyl)-1,2-dihydro-2,6,7-trimethyl-1-oxo-4-phenyl-3-isoquinolinecarboxamide]
24 | 0.086 | Cc1cc2c(-c3ccccc3)c(C(=O)NCc3ccccc3Cl)n(C)c(=O)c2cc1C [Example 131, N-(2-Chlorobenzyl)-1,2-dihydro-2,6,7-trimethyl-1-oxo-4-phenyl-3-isoquinolinecarboxamide]
25 | 0.0061 | Cn1c(C(=O)NCc2cc(C(F)(F)F)cc(C(F)(F)F)c2)c(-c2ccccc2)c2ccccc2c1=O [Example 156, N-[3,5-Bis(trifluoromethyl)benzyl]-1,2-dihydro-2-methyl-1-oxo-4-phenyl-3-isoquinolinecarboxamide]
